Experimental data taken from patent US20240190886A1, “BRM Targeting Compounds and Associated Methods of Use” (Prelude Therapeutics Incorporated, priority 2022, published 2024).

Legend:
SMARCA2 = target: T1, SMARCA2 (Homo sapiens, UniProt P51531); assay: SMARCA2 HiBiT degradation assay in HeLa cells; type: cell-based; settings: 18 hours incubation, Nano-Glo HiBiT Lytic detection
T1 construct: SMARCA2-HiBiT knock-in Hela monoclonal cell (CS302366) and SMARCA4-HiBiT knock-in Hela monoclonal cell (CS3023226) were purchased from Promega; host or cells: HeLa SMARCA2-HiBiT knock-in monoclonal cells (heterozygous knock-in)
T1 sequence (P51531 whole entry): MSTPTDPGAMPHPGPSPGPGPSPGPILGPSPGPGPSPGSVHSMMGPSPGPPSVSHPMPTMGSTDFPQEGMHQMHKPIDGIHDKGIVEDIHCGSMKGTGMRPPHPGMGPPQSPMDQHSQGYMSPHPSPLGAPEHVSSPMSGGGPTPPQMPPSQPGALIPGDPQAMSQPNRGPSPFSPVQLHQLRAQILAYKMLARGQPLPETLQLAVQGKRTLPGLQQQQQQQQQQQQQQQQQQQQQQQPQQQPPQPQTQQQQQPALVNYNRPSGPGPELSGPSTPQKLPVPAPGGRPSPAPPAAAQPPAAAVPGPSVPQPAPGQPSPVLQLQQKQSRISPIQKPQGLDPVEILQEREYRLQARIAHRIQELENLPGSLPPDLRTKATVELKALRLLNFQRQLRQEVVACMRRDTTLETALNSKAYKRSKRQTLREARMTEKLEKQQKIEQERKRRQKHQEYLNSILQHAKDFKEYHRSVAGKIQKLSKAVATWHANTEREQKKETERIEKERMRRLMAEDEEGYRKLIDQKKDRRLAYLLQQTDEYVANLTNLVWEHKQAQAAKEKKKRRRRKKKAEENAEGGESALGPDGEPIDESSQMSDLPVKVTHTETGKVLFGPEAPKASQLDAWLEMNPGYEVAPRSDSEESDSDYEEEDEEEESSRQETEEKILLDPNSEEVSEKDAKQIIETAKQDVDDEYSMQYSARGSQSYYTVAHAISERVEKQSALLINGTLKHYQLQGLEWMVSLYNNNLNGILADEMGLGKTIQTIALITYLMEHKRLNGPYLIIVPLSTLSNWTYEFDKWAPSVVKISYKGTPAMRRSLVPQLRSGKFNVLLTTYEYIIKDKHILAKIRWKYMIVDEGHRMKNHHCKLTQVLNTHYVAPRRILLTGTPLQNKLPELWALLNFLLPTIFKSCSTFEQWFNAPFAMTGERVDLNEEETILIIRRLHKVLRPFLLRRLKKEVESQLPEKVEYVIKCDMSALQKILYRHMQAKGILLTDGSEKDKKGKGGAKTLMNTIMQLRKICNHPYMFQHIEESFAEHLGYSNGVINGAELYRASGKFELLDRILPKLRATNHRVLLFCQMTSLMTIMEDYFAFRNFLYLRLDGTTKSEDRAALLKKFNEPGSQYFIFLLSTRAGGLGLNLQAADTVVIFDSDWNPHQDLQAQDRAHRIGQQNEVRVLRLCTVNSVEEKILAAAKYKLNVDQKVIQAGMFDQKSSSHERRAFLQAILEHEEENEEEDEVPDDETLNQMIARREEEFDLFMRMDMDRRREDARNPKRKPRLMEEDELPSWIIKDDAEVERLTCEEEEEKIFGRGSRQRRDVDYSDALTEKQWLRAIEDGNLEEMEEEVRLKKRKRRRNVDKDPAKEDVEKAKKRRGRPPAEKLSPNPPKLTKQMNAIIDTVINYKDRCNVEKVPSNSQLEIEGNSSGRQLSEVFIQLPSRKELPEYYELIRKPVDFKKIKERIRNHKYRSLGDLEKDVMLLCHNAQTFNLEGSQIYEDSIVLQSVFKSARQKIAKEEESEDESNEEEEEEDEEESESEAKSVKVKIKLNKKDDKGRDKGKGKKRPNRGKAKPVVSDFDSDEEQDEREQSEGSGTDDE
Method: (§1) Example A. SMARCA2 HiBiT and SMARCA4 HiBiT Degradation Assay
(§2) HiBiT peptide knock-in of SMARCA2 in LgBiT expressing HEK293T cells was performed by CRISPR-mediated tagging system as described Promega. The homozygous HiBiT knock-in on c-terminus SMARCA2 was confirmed by sanger sequence. SMARCA2-HiBiT knock-in Hela monoclonal cell (CS302366) and SMARCA4-HiBiT knock-in Hela monoclonal cell (CS3023226) were purchased from Promega. The heterozygous HiBiT-knock-in was confirmed by sanger sequence in both SMARCA2-HiBiT and SMARCA4-HiBiT monoclonal cells.
(§3) SMARCA2 HiBiT and SMARCA4 HiBiT degradation assay in HeLa cells
(§4) Dispense 10 ul aliquot of prepared Hela-SMARCA2-HiBiT or Hela-SMARCA4-HiBiT cells (1:1 ratio of cells:Trypan Blue (#1450013, Bio-Rad)) onto cell counting slide (#145-0011, Bio-Rad) and obtain cell density and cell viability using cell counter (TC20, Bio-Rad). Remove appropriate volume of resuspended cells from culture flask to accommodate 2500 cells/well @20 μL/well. Transfer Hela-HiBiT cells to 50 mL conical (#430290, Corning). Spin down at 1000 rpm for 5 min using tabletop centrifuge (SPINCHRON 15, Beckman). Discard supernatant and resuspend cell pellet in modified EMEM (#30-2003, ATCC) cell culture media containing 10% FBS (F2422-500ML, Sigma), and 1X Penicillin/Streptomycin (200 g/L) (30-002-CI, Corning) to a cell density of 125,000 cells/mL. Dispense 20 μLof resuspended Hela-HiBit cells per well in 384-well TC treated plate (#12-565-343, Thermo Scientific) using standard cassette (#50950372, Thermo Scientific) on Multidrop Combi (#5840310, Thermo Scientific) inside laminar flow cabinet.
(§5) Compounds were dissolved in DMSO to make 10 mM stock and 3-fold series dilutions were further conducted keeping the highest concentration 10 RM. Dispense test compounds onto plates using digital liquid dispenser (D300E, Tecan). Incubate plates in humidified tissue culture incubator @37° C. for 18 hours. Add 20 μL of prepared Nano-Glo® HiBiT Lytic detection buffer (N3050, Promega) to each well of 384-well plate using small tube cassette (#24073295, Thermo Scientific) on Multidrop Combi, incubate @ RT for 30-60 min. Read plates on microplate reader (Envision 2105, PerkinElmer) using 384 well Ultra-Sensitive luminescence mode. Raw data files and compound information reports are swept into centralized data lake and deconvoluted using automated scripts designed by TetraScience, Inc. Data analysis, curve-fitting and reporting done in Dotmatics Informatics Suite using Screening Ultra module.
(§6) In Table 1, A=DC50<0.1 RM; B=0.1 μM≤DC50<1 μM and C=DC50>1 μM. In Table 4, A=Dmax>75% and B=50%<Dmax<75% and C=Dmax<50%.

SMARCA4 = target: T2, SMARCA4 (Homo sapiens, UniProt P51532); assay: SMARCA4 HiBiT degradation assay in HeLa cells; type: cell-based; settings: 18 hours incubation, Nano-Glo HiBiT Lytic detection
T2 construct: SMARCA2-HiBiT knock-in Hela monoclonal cell (CS302366) and SMARCA4-HiBiT knock-in Hela monoclonal cell (CS3023226) were purchased from Promega; host or cells: HeLa SMARCA4-HiBiT knock-in monoclonal cells (heterozygous knock-in)
T2 sequence (P51532 whole entry): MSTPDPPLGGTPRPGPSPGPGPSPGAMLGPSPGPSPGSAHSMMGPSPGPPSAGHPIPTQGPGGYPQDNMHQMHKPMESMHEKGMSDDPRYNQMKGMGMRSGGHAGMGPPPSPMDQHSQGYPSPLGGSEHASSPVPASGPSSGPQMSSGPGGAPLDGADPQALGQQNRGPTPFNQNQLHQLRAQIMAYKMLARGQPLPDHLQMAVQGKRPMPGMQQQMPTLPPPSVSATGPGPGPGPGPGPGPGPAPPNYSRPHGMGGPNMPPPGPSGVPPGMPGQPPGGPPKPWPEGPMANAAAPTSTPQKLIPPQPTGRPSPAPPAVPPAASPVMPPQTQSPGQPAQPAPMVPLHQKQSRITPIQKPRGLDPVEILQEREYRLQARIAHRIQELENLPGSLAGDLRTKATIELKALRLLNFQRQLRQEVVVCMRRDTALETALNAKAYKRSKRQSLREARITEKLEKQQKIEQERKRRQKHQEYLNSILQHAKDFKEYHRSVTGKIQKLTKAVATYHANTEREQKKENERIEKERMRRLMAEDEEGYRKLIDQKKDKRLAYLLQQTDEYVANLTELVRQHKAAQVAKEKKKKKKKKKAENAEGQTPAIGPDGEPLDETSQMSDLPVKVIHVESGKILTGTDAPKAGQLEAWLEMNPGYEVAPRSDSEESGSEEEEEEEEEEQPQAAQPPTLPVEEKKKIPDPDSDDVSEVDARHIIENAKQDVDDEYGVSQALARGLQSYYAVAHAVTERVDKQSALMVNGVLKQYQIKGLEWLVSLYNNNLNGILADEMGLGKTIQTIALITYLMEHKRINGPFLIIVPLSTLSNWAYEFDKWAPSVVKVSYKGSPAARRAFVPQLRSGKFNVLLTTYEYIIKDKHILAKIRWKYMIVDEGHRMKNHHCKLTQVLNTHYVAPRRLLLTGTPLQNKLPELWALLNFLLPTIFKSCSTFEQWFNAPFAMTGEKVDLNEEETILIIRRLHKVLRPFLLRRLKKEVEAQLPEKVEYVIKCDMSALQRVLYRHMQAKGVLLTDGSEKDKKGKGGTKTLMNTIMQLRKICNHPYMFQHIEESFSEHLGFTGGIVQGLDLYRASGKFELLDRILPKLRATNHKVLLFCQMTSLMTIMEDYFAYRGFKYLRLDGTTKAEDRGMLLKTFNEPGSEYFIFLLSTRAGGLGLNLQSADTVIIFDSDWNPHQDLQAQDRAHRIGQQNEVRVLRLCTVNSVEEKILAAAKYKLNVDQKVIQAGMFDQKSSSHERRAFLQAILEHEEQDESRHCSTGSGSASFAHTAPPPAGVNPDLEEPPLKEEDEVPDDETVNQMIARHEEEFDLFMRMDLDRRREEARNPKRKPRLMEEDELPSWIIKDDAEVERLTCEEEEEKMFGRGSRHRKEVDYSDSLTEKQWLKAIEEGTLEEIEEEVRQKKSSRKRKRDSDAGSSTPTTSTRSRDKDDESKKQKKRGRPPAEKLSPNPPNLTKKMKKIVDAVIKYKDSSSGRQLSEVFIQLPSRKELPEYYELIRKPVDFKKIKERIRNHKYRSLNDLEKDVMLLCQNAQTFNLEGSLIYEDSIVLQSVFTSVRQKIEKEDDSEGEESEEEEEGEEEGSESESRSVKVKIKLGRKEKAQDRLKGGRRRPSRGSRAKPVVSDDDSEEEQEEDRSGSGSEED
Method: as §1, §2, §3, §4, §5, §6

| SMILES | DC50 (SMARCA2) | Dmax (SMARCA2) | DC50 (SMARCA4) | Dmax (SMARCA4) |
| --- | --- | --- | --- | --- |
| CC[C@]12CNc3nnc(-c4ccccc4O)cc3N1C[C@H](Oc1ccc(CN3CCN(c4ccc(C(=O)NC5CCC(=O)NC5=O)c(F)c4)CC3)cn1)C2 (stereo partly drawn) [Example 13, N-(2,6-dioxopiperidin-3-yl)-4-(4-((6-(((6aS,8R)-6a-ethyl-2-(2-hydroxyphenyl)-5,6,6a,7,8,9-hexahydropyrrolo[1′,2′:4,5]pyrazino[2,3-c]pyridazin-8-yl)oxy)pyridin-3-yl)methyl)piperazin-1-yl)-2-fluorobenzamide] | 100 to 1000 nM | < 50% | > 1000 nM | < 50% |
| CC[C@]12CNc3nnc(-c4ccccc4O)cc3N1C[C@H](Oc1ccc(CN3CCN(c4ccc(C5CCC(=O)NC5=O)cc4)CC3)cn1)C2 (stereo partly drawn) [Example 14, 3-(4-(4-((6-(((6aS,8R)-6a-ethyl-2-(2-hydroxyphenyl)-5,6,6a,7,8,9-hexahydro-pyrrolo[1′,2′:4,5]pyrazino[2,3-c]pyridazin-8-yl)oxy)pyridin-3-yl)methyl)piperazin-1-yl)phenyl)piperidine-2,6-dione] | < 100 nM | > 75% | < 100 nM | > 75% |
| C[C@@H]1CN(CC2CCN(c3ccc4ncn(C5CCC(=O)NC5=O)c(=O)c4c3)CC2)C[C@H](C)N1C(=O)N1CCN2c3cc(-c4ccccc4O)nnc3NC[C@H]2C1 (stereo partly drawn) [Example 2, 3-(6-(4-(((3R,5S)-4-((S)-2-(2-hydroxyphenyl)-6,6a,7,8,9,10-hexahydro-5H-pyrazino[1′,2′:4,5]pyrazino[2,3-c]pyridazine-8-carbonyl)-3,5-dimethylpiperazin-1-yl)methyl)piperidin-1-yl)-4-oxoquinazolin-3(4H)-yl)piperidine-2,6-dione] | < 100 nM | 50 to 75% | 100 to 1000 nM | 50 to 75% |
| CC[C@]12CNc3nnc(-c4ccccc4O)cc3N1C[C@H](Oc1ccc(CN3CCN(c4ccc(NC5CCC(=O)NC5=O)cc4F)CC3)cn1)C2 (stereo partly drawn) [Example 11, 3-((4-(4-((6-(((6aS,8R)-6a-ethyl-2-(2-hydroxyphenyl)-5,6,6a,7,8,9-hexahydro-pyrrolo[1′,2′:4,5]pyrazino[2,3-c]pyridazin-8-yl)oxy)pyridin-3-yl)methyl)piperazin-1-yl)-3-fluorophenyl)amino)piperidine-2,6-dione] | < 100 nM | > 75% | < 100 nM | > 75% |
| C[C@@H]1CN(CC2CCN(c3ccc4c(=O)n(C5CCC(=O)NC5=O)ncc4c3)CC2)C[C@H](C)N1C(=O)N1CCN2c3cc(-c4ccccc4O)nnc3NC[C@H]2C1 (stereo partly drawn) [Example 3, 3-(6-(4-(((3R,5S)-4-((S)-2-(2-hydroxyphenyl)-6,6a,7,8,9,10-hexahydro-5H-pyrazino[1′,2′:4,5]pyrazino[2,3-c]pyridazine-8-carbonyl)-3,5-dimethylpiperazin-1-yl)methyl)piperidin-1-yl)-1-oxophthalazin-2(1H)-yl)piperidine-2,6-dione] | < 100 nM | 50 to 75% | 100 to 1000 nM | < 50% |
| O=C1CCC(n2ncc3ccc(N4CCC(CN5C[C@@H]6[C@H](C5)[C@H]6CN5CCN6c7cc(-c8ccccc8O)nnc7NC[C@H]6C5)CC4)cc32)C(=O)N1 (stereo partly drawn) [Example 6, 3-(6-(4-(((1R,5S,6r)-6-(((S)-2-(2-hydroxyphenyl)-5,6,6a,7,9,10-hexahydro-8H-pyrazino[1′,2′:4,5]pyrazino[2,3-c]pyridazin-8-yl)methyl)-3-azabicyclo[3.1.0]hexan-3-yl)methyl)piperidin-1-yl)-1H-indazol-1-yl)piperidine-2,6-dione] | 100 to 1000 nM | < 50% | > 1000 nM | < 50% |
| CC[C@]12CNc3nnc(-c4ccccc4O)cc3N1C[C@H](Oc1ccc(CN3CCN(c4ccc(N5CCC(=O)NC5=O)cc4)CC3)cn1)C2 [Example 9, 1-(4-(4-((6-(((6aS,8R)-6a-ethyl-2-(2-hydroxyphenyl)-5,6,6a,7,8,9-hexahydro-pyrrolo[1′,2′:4,5]pyrazino[2,3-c]pyridazin-8-yl)oxy)pyridin-3-yl)methyl)piperazin-1-yl)phenyl)dihydropyrimidine-2,4(1H,3H)-dione] | 100 to 1000 nM | < 50% | < 100 nM | 50 to 75% |

Second part, the compound after the results:

| DC50 (SMARCA2) | Dmax (SMARCA2) | DC50 (SMARCA4) | Dmax (SMARCA4) | SMILES |
| --- | --- | --- | --- | --- |
| < 100 nM | 50 to 75% | < 100 nM | 50 to 75% | Cn1nc(N2CCC(=O)NC2=O)c2ccc(N3CCC(CN4C[C@@H]5[C@H](C4)[C@H]5CN4CCN5c6cc(-c7ccccc7O)nnc6NC[C@H]5C4)CC3)cc21 [Example 8, 1-[6-[4-[[(1S,5R)-6-[[(10S)-4-(2-hydroxyphenyl)-1,5,6,8,12-pentazatricyclo[8.4.0.02,7]tetradeca-2,4,6-trien-12-yl]methyl]-3-azabicyclo[3.1.0]hexan-3-yl]methyl]piperidin-1-yl]-1-methylindazol-3-yl]-1,3-diazinane-2,4-dione] |
| < 100 nM | > 75% | < 100 nM | > 75% | CC[C@]12CNc3nnc(-c4ccccc4O)cc3N1C[C@H](Oc1ccc(CN3CCN(c4ccc(NC5CCC(=O)NC5=O)cc4)CC3)cn1)C2 (stereo partly drawn) [Example 10, 3-((4-(4-((6-(((6aS,8R)-6a-ethyl-2-(2-hydroxyphenyl)-5,6,6a,7,8,9-hexahydro-pyrrolo[1′,2′:4,5]pyrazino[2,3-c]pyridazin-8-yl)oxy)pyridin-3-yl)methyl)piperazin-1-yl)phenyl)amino)piperidine-2,6-dione] |
| < 100 nM | 50 to 75% | < 100 nM | > 75% | O=C1CCC(c2ccc(C3CCN(Cc4ccc(O[C@H]5CN6c7cc(-c8ccccc8O)nnc7NC[C@@]6(C(F)F)C5)nc4)CC3)cc2)C(=O)N1 (stereo partly drawn) [Example 15, 3-(4-(1-((6-(((6aR,8R)-6a-(difluoromethyl)-2-(2-hydroxyphenyl)-5,6,6a,7,8,9-hexahydropyrrolo[1′,2′:4,5]pyrazino[2,3-c]pyridazin-8-yl)oxy)pyridin-3-yl)methyl)piperidin-4-yl)phenyl)piperidine-2,6-dione] |
| < 100 nM | – | > 1000 nM | – | C[C@@H]1CN(CC2CCN(c3ccc(C(=O)NC4CCC(=O)NC4=O)c(F)c3)CC2)C[C@H](C)N1C(=O)N1CCN2c3cc(-c4ccccc4O)nnc3NC[C@H]2C1 (stereo partly drawn) [Example 1, N-(2,6-dioxopiperidin-3-yl)-2-fluoro-4-(4-(((3R,5S)-4-((S)-2-(2-hydroxyphenyl)-6,6a,7,8,9,10-hexahydro-5H-pyrazino[1′,2′:4,5]pyrazino[2,3-c]pyridazine-8-carbonyl)-3,5-dimethylpiperazin-1-yl)methyl)piperidin-1-yl)benzamide] |
| < 100 nM | > 75% | < 100 nM | > 75% | CC[C@@]12CNc3nnc(-c4ccccc4O)cc3N1C[C@H](Oc1ccc(CN3CCC(c4ccc(C5CCC(=O)NC5=O)cc4)CC3)cn1)C2 (stereo partly drawn) [Example 16, 3-(4-(1-((6-(((6aR,8R)-6a-ethyl-2-(2-hydroxyphenyl)-5,6,6a,7,8,9-hexahydro-pyrrolo[1′,2′:4,5]pyrazino[2,3-c]pyridazin-8-yl)oxy)pyridin-3-yl)methyl)piperidin-4-yl)phenyl)piperidine-2,6-dione] |
